In patent US8940789B2, “Neurite elongation agent, memory-improving agent and anti-Alzheimer agent comprising 4′-demethylnobiletin or 4′-demethyltangeretin as active ingredient, and process for production of the compound” (Fuji Sangyo Co., Ltd., priority 2009, dated 2015):

What was measured:
[1] = system: nitric oxide (NO), inducible nitric oxide synthase (iNOS), and cyclooxygenase-2 (COX-2); settings: synthesized demethylated compounds compared with nobiletin per se; Non Patent Literature 3; cited from earlier work
Neuro2a = assay: Neurite elongation activity in Neuro2a neurocytes; assay type: cell-based; settings: 20 μM, observed under microscope two days after addition, compared with comparative controls nobiletin and tangeretin
Protocol: The conversion compound 1, i.e., an isolated product of 4′-demethylnobiletin, and the conversion compound 2, i.e., an isolated product of 4′-demethyltangeretin, both obtained in Example 3 above were used to study neurite elongation activities. Neuro2a was used as a neurocyte.
First, Neuro2a cells were cultured in DMEM medium containing 10% fetal bovine serum (FBS) in a 37° C. incubator with 5% CO2. The cells were subcultured every three days.
Then, the cells were inoculated in a 24′-well cell culture plate at 2×10^4/well using DMEM medium containing 5% FBS. Three hours after subculture, various test samples were added each at a concentration of 20 μM. 4′-demethylnobiletin (the product in Example 3), 4′-demethyltangeretin (the product in Example 3), nobiletin (a comparative control), and tangeretin (a comparative control) dissolved in ethanol were used as the test samples. As a control, only ethanol was used.
Then, two days after addition of the various test samples, neurite elongation activities were observed under microscope. FIG. 4 show picture images for comparing the neurite elongation activities exerted by the various test samples in cultures.

COc1c(OC)c(OC)c2c(=O)cc(-c3ccc(O)c(O)c3)oc2c1OC [3′,4′-didemethylnobiletin]
effect of preventing development of cancer by suppressing synthesis of NO, iNOS and COX-2 [1]: drastically higher effect than nobiletin

COc1ccc(-c2cc(=O)c3c(OC)c(OC)c(OC)c(OC)c3o2)cc1O [3′-demethylnobiletin]
effect of preventing development of cancer by suppressing synthesis of NO, iNOS and COX-2 [1]: drastically higher effect than nobiletin

COc1cc(-c2cc(=O)c3c(OC)c(OC)c(OC)c(OC)c3o2)ccc1O [4′-demethylnobiletin]
neurite elongation activity (Neuro2a): significant neurite elongation activities
effect of preventing development of cancer by suppressing synthesis of NO, iNOS and COX-2 [1]: drastically higher effect than nobiletin

COc1c(OC)c(OC)c2c(=O)cc(-c3ccc(O)cc3)oc2c1OC [4′-demethyltangeretin]
neurite elongation activity (Neuro2a): significant neurite elongation activities
